Entries after “also recorded” stand apart in the source; their conditions may differ. Read-outs that look alike come from different tables or passages of the source. Ends that are not written are not given here.
Legend:
CLas BamA protein = CLas BamA protein (Candidatus Liberibacter asiaticus, UniProt Q32TE9); format: binding; conditions: for Kd: read-out: KD, affinity constant
[1] = target: CLas BamA protein (Candidatus Liberibacter asiaticus); test: BLI (BLItz), […], global fit, triplicate
E. coli = test: FITC-labeled peptide binding assay, fluorescence microscopy; parameters: species or system Escherichia coli
[2] = tested on: putative CLas cells in bacterial extracts from HLB-affected trees; format: binding, Candidatus Liberibacter asiaticus
R. grahamii [3] = format: binding, Rhizobium grahamii
R. galegae [4] = test: FITC-labeled peptide binding assay, fluorescence microscopy; parameters: species or system Rhizobium galegae
[5] = tested on: cells in healthy citrus tree extracts; format: binding
L. crescens [6] = format: binding, Liberibacter crescens
CLas [7] = format: in vivo, Candidatus Liberibacter asiaticus; conditions: for Reduction in CLas titers compared to SOD2* or SOD12 alone: roots of 4 months old composite plants stably expressing the STAMP
CLas [8] = format: cell-based, Candidatus Liberibacter asiaticus; conditions: 72 hours; 25, 50, 100 μg/ml
L. crescens [9] = tested on: L. crescens
R. grahamii [10] = format: cell-based, Rhizobium grahamii; conditions: 10, 25, 50, 100 μg/ml
R. galegae [11] = format: cell-based, Rhizobium galegae; conditions: N- or C-terminus orientation
[12] = BLI, pH 6.5 Tris buffer, mean ± SD
[13] = binders 16 μM, unrelated bacterium
[14] = binders 16 μM, bacterial extracts from HLB-affected citrus trees
[15] = especially at lower dosages (50 μg/ml)

Molecule: NC(N)=NC(=O)CC(Nc1nc(N=C(N)N)nc(NC2CCC(NC(=O)Cn3nnc(-c4ccc(F)cc4)n3)CC2)n1)C1CC1 (centres unmarked) [MRL-494, reference compound]
- Kd, rate of dissociation (CLas BamA protein; [12]): 0.0813 ± 1 s⁻¹
- Kd (CLas BamA protein; [12]): 6970 nM

Molecule: ACT56869.1_241-255 (peptide)
- Kd [1]: 270 nM
- koff [1]: 0.0117 s⁻¹
- kon [1]: 49600 M⁻¹ s⁻¹

Molecule: ACT56973.1_80-96 (peptide)
- Kd [1]: 248 nM
- koff [1]: 0.211 s⁻¹
- kon [1]: 852000 M⁻¹ s⁻¹

Molecule: ACT57020.1_94-118 (peptide)
- Kd [1]: 209 nM
- koff [1]: 0.0032 s⁻¹
- kon [1]: 15900 M⁻¹ s⁻¹

Molecule: DLHPQFQNLLKKSQN [ACT56869.1_241-255]
- Ka, rate of association (CLas BamA protein; [12]): 49610 ± 1 M⁻¹ s⁻¹
- Kd, rate of dissociation (CLas BamA protein; [12]): 0.01167 ± 1 s⁻¹
- Kd (CLas BamA protein; [12]): 270 nM

Molecule: MGINGFKFLSDIHHFCS [compound 22602, MGINGFKFLSDIHHFCS]
- Binding of FITC-labeled binder to E. coli (E. coli): not to E. coli
- Binding of FITC-labeled binder to CLas cells [2]: consistent binding; also recorded: bound
- Binding of FITC-labeled binder to R. grahamii (R. grahamii [3]): consistent binding; also recorded: bound
- Binding of FITC-labeled binder to R. galegae (R. galegae [4]): consistent binding; also recorded: bound
- Binding of FITC-labeled binder to cells in healthy citrus tree extracts [5]: not
- Binding of FITC-labeled binder to L. crescens (L. crescens [6]): consistent binding; also recorded: bound

Molecule: QSFYYVSQKKKWFPVKF [ACT56973.1_80-96]
- Ka, rate of association (CLas BamA protein; [12]): 852433 ± 1 M⁻¹ s⁻¹
- Kd, rate of dissociation (CLas BamA protein; [12]): 0.2111 ± 1 s⁻¹
- Kd (CLas BamA protein; [12]): 248 nM

Molecule: RICESASYRFKGICVSRSNCANVCKNEGFPGGRCRGFRRRCLCYKHCG (cysteines drawn unpaired) [SOD12]
- CLas titers compared to empty vector controls (CLas [7]; in vivo): significantly lowered
- Anti-CLas activity (relative CLas titers by qPCR) (CLas [8]): ineffective or moderately effective
- Mortality of L. crescens at lower dosage (L. crescens [9]): ineffective
- Mortality rate of L. crescens (L. crescens [9]): 65-85%

Molecule: SRNSSIALGLRRAYAVFNYFVARGI [compound 57020]
- Binding of FITC-labeled binder to E. coli (E. coli): not to E. coli
- Binding of FITC-labeled binder to CLas cells [2]: consistent binding; also recorded: bound
- Binding of FITC-labeled binder to R. grahamii (R. grahamii [3]): consistent binding; also recorded: bound
- Binding of FITC-labeled binder to R. galegae (R. galegae [4]): consistent binding; also recorded: bound
- Ka, rate of association (CLas BamA protein; pH 6.5): 15857 ± 1 M⁻¹ s⁻¹
- Kd, rate of dissociation (CLas BamA protein; pH 6.5): 0.0032 ± 1 s⁻¹
- Kd (CLas BamA protein; pH 6.5): 209 nM
- In vitro growth inhibition of R. grahamii, efficacy compared to SOD12 alone (R. grahamii [10]): significantly greater efficacy
- Binding of FITC-labeled binder to cells in healthy citrus tree extracts [5]: not
- Binding of FITC-labeled binder to L. crescens (L. crescens [6]): consistent binding; also recorded: bound

Molecule: WHVTFY [#11]
- Binding of FITC-labeled binder to E. coli (E. coli; [13]): not to E. coli
- Binding of FITC-labeled binder to CLas cells [2, 14]: bound
- Binding of FITC-labeled binder to R. grahamii (R. grahamii [3]; binders 16 μM): bound
- Binding of FITC-labeled binder to R. galegae (R. galegae [4]; binders 16 μM): bound
- Binding of FITC-labeled binder to cells in healthy citrus tree extracts ([5]; binders 16 μM): not
- Binding of FITC-labeled binder to L. crescens (L. crescens [6]; binders 16 μM): bound

Molecule: WHVTYF [#12]
- Binding of FITC-labeled binder to E. coli (E. coli; [13]): not to E. coli
- Binding of FITC-labeled binder to CLas cells [2, 14]: bound
- Binding of FITC-labeled binder to R. grahamii (R. grahamii [3]; binders 16 μM): bound
- Binding of FITC-labeled binder to R. galegae (R. galegae [4]; binders 16 μM): bound
- Binding of FITC-labeled binder to cells in healthy citrus tree extracts ([5]; binders 16 μM): not
- Binding of FITC-labeled binder to L. crescens (L. crescens [6]; binders 16 μM): bound

B1: 57020-SOD12: STAMP, SEQ ID NO: 23; binder 57020, GGSGGS linker, SOD12 (peptide)
chain: SRNSSIALGLRRAYAVFNYFVARGIGGSGGSRICESASYRFKGICVSRSNCANVCKNEGFPGGRCRGFRRRCLCYKHCG
- Efficacy in R. galegae compared with 22602-SOD12 and SOD12-57020 (binder orientation) (R. galegae [11]): lower efficacy
- In vitro growth inhibition of R. grahamii, efficacy compared to SOD12 alone (R. grahamii [10]; [15]): significantly greater efficacy

B2: SOD12-57020: STAMP, SEQ ID NO: 24; SOD12, GGSGGS linker, binder 57020 (peptide)
chain: RICESASYRFKGICVSRSNCANVCKNEGFPGGRCRGFRRRCLCYKHCGGGSGGSSRNSSIALGLRRAYAVFNYFVARGI
- In vitro growth inhibition of R. grahamii, efficacy compared to SOD12 alone (R. grahamii [10]; [15]): significantly greater efficacy

B3: 22602-SoD2*: STAMP, SEQ ID NO: 25; binder 22602, GGSGGS linker, SOD2* (peptide)
chain: MGINGFKFLSDIHHFCSGGSGGSGIFSSRKCKTPSKTFKGICTRDSNCDTSCRYEGYPAGDCKGIRRRCLCCTHT
- Reduction in CLas titers compared to SOD2* or SOD12 alone (CLas [7]): even greater reduction in CLas titers

B4: 22602-SOD12: STAMP, SEQ ID NO: 21; binder 22602, GGSGGS linker, SOD12 (peptide)
chain: MGINGFKFLSDIHHFCSGGSGGSRICESASYRFKGICVSRSNCANVCKNEGFPGGRCRGFRRRCLCYKHCG
- Reduction in CLas titers compared to SOD2* or SOD12 alone (CLas [7]): even greater reduction in CLas titers

B5: SOD12-22602: STAMP, SEQ ID NO: 22; SOD12, GGSGGS linker, binder 22602 (peptide)
chain: RICESASYRFKGICVSRSNCANVCKNEGFPGGRCRGFRRRCLCYKHCGGGSGGSMGINGFKFLSDIHHFCS
- Efficacy in R. galegae compared with 22602-SOD12 and SOD12-57020 (binder orientation) (R. galegae [11]): lower efficacy

B6: 57020-SoD2*: STAMP, SEQ ID NO: 27; binder 57020, GGSGGS linker, SOD2* (peptide)
chain: SRNSSIALGLRRAYAVFNYFVARGIGGSGGSGIFSSRKCKTPSKTFKGICTRDSNCDTSCRYEGYPAGDCKGIRRRCLCCTHT
- Reduction in CLas titers compared to SOD2* or SOD12 alone (CLas [7]): even greater reduction in CLas titers

Reference: US20240349733A1 (priority 2023, published 2024)
